In the supplement of paper PMC5908809:

How the values were obtained:
SNK-6 (IL-2 2.5 ng/mL) [1] = assay: percent inhibition of viability; higher = more inhibition; details: 72 h
NK-YS (IL-2 2.5 ng/mL) [2] = assay: as above; details: 72 h
KHYG-1 (IL-2 2.5 ng/mL) [3] = assay: as above; details: 72 h
NK-92 (IL-2 2.5 ng/mL) [4] = assay: as above; details: 72 h
[5] = tested on: normal primary NK cells, pool 1 (3 donors) (IL-2 2.5 ng/mL); assay: as above; details: 72 h
KAI3 (IL-2 2.5 ng/mL) [6] = assay: as above; details: 72 h
DERL-7 (IL-2 2.5 ng/mL) [7] = assay: as above; details: 72 h
[8] = tested on: normal primary NK cells, pool 3 (3 donors) (IL-2 2.5 ng/mL); assay: as above; details: 72 h
IMC-1 (IL-2 20 ng/mL) [9] = assay: as above; details: 72 h
[10] = tested on: normal primary NK cells, pool 2 (3 donors) (IL-2 2.5 ng/mL); assay: as above; details: 72 h
NKL (IL-2 2.5 ng/mL) [11] = assay: as above; details: 72 h
[12] = tested on: normal primary NK cells, pool 1 (3 donors), resting (IL-2 0 ng/mL); assay: as above; details: 72 h
YT (IL-2 2.5 ng/mL) [13] = assay: as above; details: 72 h
SNK-6 (IL-2 2.5 ng/mL) [14] = assay: drug sensitivity score (DSS) (DSS units); higher = more sensitive; extreme values may be limits of the assay; details: 72 h
NK-YS (IL-2 2.5 ng/mL) [15] = assay: as above; details: 72 h
KHYG-1 (IL-2 2.5 ng/mL) [16] = assay: as above; details: 72 h
NK-92 (IL-2 2.5 ng/mL) [17] = assay: as above; details: 72 h
[18] = tested on: normal primary NK cells, pool 1 (3 donors) (IL-2 2.5 ng/mL); assay: as above; details: 72 h
KAI3 (IL-2 2.5 ng/mL) [19] = assay: as above; details: 72 h
DERL-7 (IL-2 2.5 ng/mL) [20] = assay: as above; details: 72 h
[21] = tested on: normal primary NK cells, pool 3 (3 donors) (IL-2 2.5 ng/mL); assay: as above; details: 72 h
IMC-1 (IL-2 20 ng/mL) [22] = assay: as above; details: 72 h
[23] = tested on: normal primary NK cells, pool 2 (3 donors) (IL-2 2.5 ng/mL); assay: as above; details: 72 h
NKL (IL-2 2.5 ng/mL) [24] = assay: as above; details: 72 h
[25] = tested on: normal primary NK cells, pool 1 (3 donors), resting (IL-2 0 ng/mL); assay: as above; details: 72 h
YT (IL-2 2.5 ng/mL) [26] = assay: as above; details: 72 h
[27] = tested on: normal NK cells expanded with K562-aAPC; assay: percent inhibition of viability; higher = more inhibition; details: 72 h, IL-2 2.5 ng/mL
Experimental: (§1)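 Drug sensitivity and resistance testing on K562-aAPC-expanded normal NK cells: 5 concentrations (10-fold steps over a 10,000-fold range), 72 h at 37 °C, viability by CellTiter-Glo normalised to DMSO and benzethonium chloride controls; DSS from the fitted curve.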

[28] = tested on: normal NK cells expanded with K562-aAPC; assay: drug sensitivity score (DSS) (DSS units); higher = more sensitive; extreme values may be limits of the assay; details: 72 h; IL-2 2.5 ng/mL
Experimental: as §1

C=CC[C@@H]1/C=C(\C)C[C@H](C)C[C@H](OC)[C@H]2O[C@@](O)(C(=O)C(=O)N3CCCC[C@H]3C(=O)O[C@H](/C(C)=C/[C@@H]3CC[C@@H](O)[C@H](OC)C3)[C@H](C)[C@@H](O)CC1=O)[C@H](C)C[C@@H]2OC [Tacrolimus] (max concentration tested 10000 nM)
percent inhibition of viability [%]
Details	1 nM	10 nM	100 nM	1000 nM	10000 nM
DERL-7 (IL-2 2.5 ng/mL) [7]	-6.89	-0.55	-1.59	-6.35	23
IMC-1 (IL-2 20 ng/mL) [9]	1.61	-1.68	-1.5	-2.11	23.3
KAI3 (IL-2 2.5 ng/mL) [6]	-0.56	6.96	5.19	-3.38	1.06
KHYG-1 (IL-2 2.5 ng/mL) [3]	-2.54	-4.56	1.9	0.69	13.5
NK-92 (IL-2 2.5 ng/mL) [4]	-18.9	-10.1	-13.5	5.35	30.1
NK-YS (IL-2 2.5 ng/mL) [2]	1.38	-3.09	1.86	5.94	19.8
NKL (IL-2 2.5 ng/mL) [11]	-8.22	-6.4	-3.18	8.38	3.72
SNK-6 (IL-2 2.5 ng/mL) [1]	6.17	-4.96	-13.1	-0.42	16.6
YT (IL-2 2.5 ng/mL) [13]	0.78	-1.87	1.16	5.77	24.4
[5]	-2.12	0.6	4.89	4.45	43.2
[8]	10.7	1.86	-0.29	-2.25	1.84
[10]	6.61	4.19	3.62	3.15	28.9
[12]	-2.76	-12.4	9.06	17.2	71.7
[27]	-12.2	-4.97	-9.06	-4.26	-5.39

Details	drug sensitivity score
DERL-7 (IL-2 2.5 ng/mL) [20]	0.55
IMC-1 (IL-2 20 ng/mL) [22]	0.7
KAI3 (IL-2 2.5 ng/mL) [19]	0
KHYG-1 (IL-2 2.5 ng/mL) [16]	0.17
NK-92 (IL-2 2.5 ng/mL) [17]	2.16
NK-YS (IL-2 2.5 ng/mL) [15]	1.16
NKL (IL-2 2.5 ng/mL) [24]	0
SNK-6 (IL-2 2.5 ng/mL) [14]	0.32
YT (IL-2 2.5 ng/mL) [26]	1.73
[18]	2.93
[21]	0
[23]	1.72
[25]	6.54
[28]	0

CCCOc1ccn2c(C(C)=O)cc(-c3ccccc3S(C)(=O)=O)c2c1 [GSK2801] (max concentration tested 10000 nM)
percent inhibition of viability [%]
Details	1 nM	10 nM	100 nM	1000 nM	10000 nM
DERL-7 (IL-2 2.5 ng/mL) [7]	3.66	0.68	6.46	3.78	26.7
IMC-1 (IL-2 20 ng/mL) [9]	-5.58	-4	-5.67	-6.64	-7.6
KAI3 (IL-2 2.5 ng/mL) [6]	-0.66	1.6	3.26	1.19	13.8
KHYG-1 (IL-2 2.5 ng/mL) [3]	-6.23	-1.14	-4.5	-0.03	3.02
NK-92 (IL-2 2.5 ng/mL) [4]	13.2	-11.5	-4.85	-3.31	1.17
NK-YS (IL-2 2.5 ng/mL) [2]	-2.46	-2.16	-2.35	-0.19	12.5
NKL (IL-2 2.5 ng/mL) [11]	-3.96	-3.81	7.18	-1.4	23.3
SNK-6 (IL-2 2.5 ng/mL) [1]	9.8	1.5	0.45	0.35	15.4
YT (IL-2 2.5 ng/mL) [13]	-2.89	-0.79	-3.2	1.49	5.33
[5]	-8.08	-8.31	-8.28	1.69	18.7
[8]	-5.87	2.4	-5.15	-6.31	4.35
[10]	-4.35	-4.55	-1.61	-2.13	14.3
[12]	-9.69	-17.6	-10.8	10.7	38
[27]	0.95	-8.4	-3.92	-5.08	3.93

Details	drug sensitivity score
DERL-7 (IL-2 2.5 ng/mL) [20]	1.67
IMC-1 (IL-2 20 ng/mL) [22]	0
KAI3 (IL-2 2.5 ng/mL) [19]	0.24
KHYG-1 (IL-2 2.5 ng/mL) [16]	0
NK-92 (IL-2 2.5 ng/mL) [17]	0
NK-YS (IL-2 2.5 ng/mL) [15]	0.07
NKL (IL-2 2.5 ng/mL) [24]	0.73
SNK-6 (IL-2 2.5 ng/mL) [14]	0.29
YT (IL-2 2.5 ng/mL) [26]	0
[18]	0.69
[21]	0
[23]	0.12
[25]	3.45
[28]	0

CC1=C(/C=C/C(C)=C/C=C/C(C)=C/C(=O)O)C(C)(C)CCC1 [Tretinoin] (max concentration tested 10000 nM)
percent inhibition of viability [%]
Details	1 nM	10 nM	100 nM	1000 nM	10000 nM
DERL-7 (IL-2 2.5 ng/mL) [7]	0.02	-9.97	-17.2	-1.93	1.55
IMC-1 (IL-2 20 ng/mL) [9]	-5.65	-8.65	-8.92	-15.6	-11.9
KAI3 (IL-2 2.5 ng/mL) [6]	-2.48	-3.65	-1.2	3.75	16
KHYG-1 (IL-2 2.5 ng/mL) [3]	-3.1	-0.61	11.5	20.8	33
NK-92 (IL-2 2.5 ng/mL) [4]	-0.77	-12.9	-9.35	0.15	-0.14
NK-YS (IL-2 2.5 ng/mL) [2]	-3.42	-0.23	9.86	11.1	28.9
NKL (IL-2 2.5 ng/mL) [11]	-12.8	-0.36	-1.84	17.5	39.7
SNK-6 (IL-2 2.5 ng/mL) [1]	-9.38	11.7	19.6	-4.95	10.5
YT (IL-2 2.5 ng/mL) [13]	-1.46	-2.61	-3.8	-1.99	3.09
[5]	-4.29	-17	-11.3	-4.32	10.6
[8]	-4.65	-2.78	-10.4	-7.74	-8.57
[10]	-8.71	-3.05	-10.2	-13.1	1.08
[12]	-8.15	-5.96	-18.7	18.4	26.4
[27]	-4.58	-6.04	-10.1	-14.2	-11.4

Details	drug sensitivity score
DERL-7 (IL-2 2.5 ng/mL) [20]	0
IMC-1 (IL-2 20 ng/mL) [22]	0
KAI3 (IL-2 2.5 ng/mL) [19]	0.68
KHYG-1 (IL-2 2.5 ng/mL) [16]	4.32
NK-92 (IL-2 2.5 ng/mL) [17]	0
NK-YS (IL-2 2.5 ng/mL) [15]	2.28
NKL (IL-2 2.5 ng/mL) [24]	4.28
SNK-6 (IL-2 2.5 ng/mL) [14]	0
YT (IL-2 2.5 ng/mL) [26]	0
[18]	0
[21]	0
[23]	0
[25]	3.02
[28]	0
